Source: patent US20220265830A1, “LONG-ACTING FORMULATIONS AND VEHICLES” (DURECT CORPORATION, priority 2019, published 2022)
In brackets after ≈: the same amount, converted by molar mass. Like-named read-outs stand apart in the source and are kept apart here. Marks after values point to notes of the source that are not given here.

Legend:
[1] = in vivo; cited from earlier work
[2] = Experimental; cited from earlier work
[3] = Experimental, cited from earlier work
[4] = Experimental (Buprenorphine at 25° C.); cited from earlier work
physchem = settings: BB
Procedure: Briefly, samples were prepared by mixing active agent and solvent and were tested at various time points after mixing and after storage at various temperatures. The samples were tested for the solubility of the active agent (mg/mL), calculated as the free base equivalent. Each data point is the average of two replicates unless otherwise specified.

[5] = cited from earlier work

Compound	Oral Half-life [1]	logP [2]	further results
Cc1cc2c(s1)Nc1ccccc1N=C2N1CCN(C)CC1 [Olanzapine]	21 −54 hrs		
COc1cc2c(cc1Cc1cccc(Cl)c1F)c(=O)c(C(=O)O)cn2[C@H](CO)C(C)C [Elvitegravir]	8.7 h		
Nc1ncn([C@@H]2O[C@H](CO)[C@@H](O)[C@H]2O)c(=O)n1 [Azacitidine]	~4 h		
CN1CC2c3ccccc3Oc3ccc(Cl)cc3C2C1 (centres unmarked) [Asenapine]	~24 h		
Cc1cn([C@H]2C=C[C@@H](CO)O2)c(=O)[nH]c1=O [Stavudine]	0.8 to 1.5 h	−0.72	Water Solubility ([3]; at 21° C.): 5-10 g/100 mL at
CC(C)OC(=O)[C@H](C)N[P@](=O)(CO[C@H](C)Cn1cnc2c(N)ncnc21)Oc1ccccc1.CC(C)OC(=O)[C@H](C)N[P@](=O)(CO[C@H](C)Cn1cnc2c(N)ncnc21)Oc1ccccc1.O=C(O)/C=C/C(=O)O [TAF Hemifumarate]			Solubility (mg/mL, Calculated as Free Base Equivalent) (ACN, 37° C./5 days): 11 mg/mL; Solubility (mg/mL, Calculated as Free Base Equivalent) (BB, 37° C., asterisk: taken at 4 days as opposed to 5 days): 3.9* mg/mL; Solubility (mg/mL, Calculated as Free Base Equivalent) (DCM, 37° C./5 days): 97 mg/mL; Solubility (mg/mL, Calculated as Free Base Equivalent) (DMSO, 37° C./5 days): 132 mg/mL; Solubility (mg/mL, Calculated as Free Base Equivalent) (NMP, 37° C./5 days): 160 mg/mL; Solubility (mg/mL, Calculated as Free Base Equivalent) (PC, 37° C./5 days): 22 mg/mL
CCNC(=O)[C@@H]1CCCN1C(=O)[C@H](CCCNC(=N)N)NC(=O)[C@H](CC(C)C)NC(=O)[C@@H](CC(C)C)NC(=O)[C@H](Cc1ccc(O)cc1)NC(=O)[C@H](CO)NC(=O)[C@H](Cc1c[nH]c2ccccc12)NC(=O)[C@H](Cc1c[nH]cn1)NC(=O)[C@@H]1CCC(=O)N1 [Leuprolide]	~3 h		
Cc1cc(/C=C/C#N)cc(C)c1Nc1ccnc(Nc2ccc(C#N)cc2)n1 [Rilpivirine]	34 to 55 h	4.86	Water Solubility [3]: <0.1 mg/mL
O=C1CC[C@@]2(O)[C@H]3Cc4ccc(O)c5c4[C@@]2(CCN3CC2CC2)[C@H]1O5 [Naltrexone]		1.92	
Cc1nnc(C(=O)NC(C)(C)c2nc(C(=O)NCc3ccc(F)cc3)c(O)c(=O)n2C)o1 [Raltegravir]	9 h		
C[C@@](Cc1ccc(O)c(O)c1)(NN)C(=O)O [Carbidopa]	~1.78 h	−1.9	Water Solubility [3]: 3.8 mg/mL; pKa [4]: 2.3
CC(C)OC(=O)[C@H](C)N[P@](=O)(CO[C@H](C)Cn1cnc2c(N)ncnc21)Oc1ccccc1 [TAF Free base, tenofovir alafenamide]			solubility at 4 days (physchem): 5 mg/mL (≈ 10.5 mM)
Nc1ccn([C@H]2CC[C@@H](CO)O2)c(=O)n1 [Zalcitabine]	2 h		
Nc1ncn([C@H]2C[C@H](O)[C@@H](CO)O2)c(=O)n1 [Decitabine]	0.51 ± 0.31 h		
O=C1CCc2ccc(OCCCCN3CCN(c4cccc(Cl)c4Cl)CC3)cc2N1 [Aripiprazole]	75 h		Water Solubility [3]: 0.00001%
Cc1nc2n(c(=O)c1CCN1CCC(c3noc4cc(F)ccc34)CC1)CCCC2O (centres unmarked) [Paliperidone]	~23 h	1.8	
C[C@@H]1CCO[C@H]2Cn3cc(C(=O)NCc4ccc(F)cc4F)c(=O)c(O)c3C(=O)N12 [Dolutegravir]	14 h	2.2	Water Solubility ([3]; in words): Slightly soluble
sucrose acetate isobutyrate [SAIB]			viscosity ([5]; at 37° C.): about 320,000 cP; viscosity ([5]; at 80° C.): about 600 cP; viscosity ([5]; at about 25° C.): about 2 million
O=C1[C@@H]2[C@H]3CC[C@H](C3)[C@@H]2C(=O)N1C[C@@H]1CCCC[C@H]1CN1CCN(c2nsc3ccccc23)CC1 [Lurasidone]	18 to 37 h		
O=c1ccc2ccc(OCCCCN3CCN(c4cccc5sccc45)CC3)cc2[nH]1 [Brexpiprazoie]	91 h		
N[C@@H](Cc1ccc(O)c(O)c1)C(=O)O [Levodopa]	0.833 h	0.05	Water Solubility [3]: 5 mM
